Numbering of substitutions follows the chain as printed. Where a name gives a salt, the structure may show the parent alone. Read-outs that look alike come from different tables or passages of the source.
Columns and labels:
Cathepsin G = biological target: T1, Cathepsin G (Homo sapiens, UniProt P08311); test: Measurement of cathepsin G inhibitory activity (Suc-Ala-Ala-Pro-Phe-pNA); type: biochemical; conditions: cathepsin G from human purulent sputum; 60 minutes at 37° C.
T1 construct: the product of Elastin Products Company, Inc. derived from human purulent sputum was used; purchased Elastin Products Company, Inc; host or cells: human purulent sputum
T1 sequence (P08311 21-244): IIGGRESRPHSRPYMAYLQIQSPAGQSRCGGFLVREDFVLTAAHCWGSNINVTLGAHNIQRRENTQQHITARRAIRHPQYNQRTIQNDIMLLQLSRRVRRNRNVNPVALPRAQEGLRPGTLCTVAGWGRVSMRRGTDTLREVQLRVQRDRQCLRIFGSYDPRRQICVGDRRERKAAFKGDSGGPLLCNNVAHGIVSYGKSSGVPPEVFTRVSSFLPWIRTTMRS
Protocol: (§1) Measurement of Cathepsin G Inhibitory Activity and Chymotrypsin Inhibitory Activity
(§2) Each activity of cathepsin G or chymotrypsin was measured by determining the amount of free p-nitroaniline quantitatively using a synthetic substrate that is colorless and yields colored product upon hydrolysis, by means of a spectrophotometer. Chymotrypsin Type I-S derived from bovine pancreas was purchased from SIGMA. As cathepsin G, the product of Elastin Products Company, Inc. derived from human purulent sputum was used. Suc-Ala-Ala-Pro-Phe-pNA (manufactured by SIGMA) was used as the synthetic substrate. An inhibitory effect of a compound on each enzyme was determined by the following method.
(§3) Each test compound (5 μmol) was weighed in a test tube and dissolved into 2 mL of DMSO. […] Then, 200 μL of 1 mmol/L substrate solution was added to initiate en enzymatic reaction under a temperature of 37° C.
(§4) Based on each inhibitory ratio, IC50 value was calculated.

Human chymase = biological target: T2, Human chymase (Homo sapiens, UniProt P23946); test: Measurement of inhibitory activity of human chymase (Ang I substrate, His-Leu/OPT fluorescence)
T2 sequence (P23946 22-247): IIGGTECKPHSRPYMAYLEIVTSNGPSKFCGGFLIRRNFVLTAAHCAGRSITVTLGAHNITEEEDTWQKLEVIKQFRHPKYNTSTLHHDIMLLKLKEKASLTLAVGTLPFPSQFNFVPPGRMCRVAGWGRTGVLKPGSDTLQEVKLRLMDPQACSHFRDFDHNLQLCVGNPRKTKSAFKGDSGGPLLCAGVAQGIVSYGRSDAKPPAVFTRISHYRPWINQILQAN
Protocol: (§5) That is, the activity was measured by reacting free His-Leu formed together with Ang II with o-phthalaldehyde (hereinafter, abbreviated as OPT) to prepare a fluorescent derivative and determining the amount quantitatively by means of a fluorophotometer.
(§6) First, 3.6 μmol of each test compound was weighed in a test tube and was dissolved into 3 mL of DMSO. The DMSO solution was diluted 1000-fold with 20 mmol/L Tris-hydrochloric acid buffer solution (pH 8.0) containing 0.01% Triton X-100 and 0.5 mol/L potassium chloride to prepare 1.2×10^−6 mol/L solution, which was successively diluted with the buffer solution to prepare test sample solutions having concentrations of 1.2×10^−6 mol/L to 1.2×10^−9 mol/L. To 500 μL of the test sample solution of each concentration or buffer solution was added 50 μL of an enzyme solution, followed by 10 minutes of pre-incubation at 37° C. Then, 50 μL of 0.1 mmol/L Ang I solution was added to initiate a reaction. Human angiotensin I (manufactured by SIGMA) was employed as Ang I. The enzyme solution to be used for the reaction was adjusted so as to hydrolyze about 60% of substrate under the conditions, and the reaction wherein a buffer solution containing no enzyme was carried out as a blind test. […] Thereafter, the reaction mixture was centrifuged at 4° C. at 3,000 rpm for 10 minutes and 2 mL of 2 mol/L sodium hydroxide and 1 mL of methanol were added to 1 mL of the resulting supernatant. […] The measurement was repeated twice for each sample and blind test. The fluorescence intensity obtained by subtracting the average value at blind test from the average value thereof was determined as chymase activity.
(§7) In this regard, an enzymatic reaction using a buffer solution instead of the test sample solution was carried out as a control, and inhibitory ratio of chymase activity was determined as percentage by dividing the difference of subtraction of the activity at the addition of the test compound from the chymase activity at the control by the chymase activity at the control.

Simian chymase = biological target: T3, Simian chymase (Macaca mulatta, UniProt F6SAJ2); test: Measurement of inhibitory activity of simian chymase (Ang I substrate, His-Leu/OPT fluorescence); type: biochemical, rhesus monkey; conditions: chymase from heart of rhesus monkey; 120 minutes at 37° C.; read-out: Simian chymase IC50 value
T3 sequence (F6SAJ2 22-247 limits assumed): T2 sequence (P23946 22-247) with F29S, E63K, D159Y, S201L, Q221K, A225G
Protocol: as §5, §6, §7

Chymotrypsin = biological target: T4, Chymotrypsin (Bos taurus, UniProt P00766); test: Measurement of chymotrypsin inhibitory activity (Suc-Ala-Ala-Pro-Phe-pNA); type: biochemical; conditions: Chymotrypsin Type I-S from bovine pancreas; 30 minutes at 37° C.
T4 construct: Chymotrypsin Type I-S derived from bovine pancreas; purchased SIGMA Type I-S; host or cells: bovine pancreas
Protocol: as §1, §2, §3, §4

Stability in rat plasma = type: in vitro ADME; conditions: 10 μg/mL, 37° C., 60 minutes, HPLC
Protocol: Stability of the compounds of the invention in rat plasma was investigated.
Male SD rats (7-week-old) were anesthetized with ether under over-night fasting conditions and, after an abdominal part was incised, blood was collected from aorta abdominalis using a heparinized disposable plastic syringe. The blood was centrifuged under cooling to collect a supernatant plasma. The collected plasma was stored under freezing at −30° C. and was melted before use. After a test compound was dissolved in DMSO, the solution was added to 200 μL of the plasma so as to be 10 μg/mL, followed by incubation at 37° C. After 60 minutes, the mixture was acidified by adding 200 μL of 0.1 mol/L hydrochloric acid, and then extracted twice with 2 mL of ethyl acetate. The resulting organic layer was evaporated to dryness under a nitrogen gas flow and the residue was dissolved into 200 μL of acetonitrile to prepare a sample solution. On the other hand, the test compound was dissolved into 1% acetonitrile solution of DMSO so as to be 10 μg/mL as a control solution. The sample solution and control solution was investigated by high performance liquid chromatography (hereinafter, abbreviated as HPLC). Residual ratio (%) was determined as percentage by dividing the peak area of the sample solution by the peak area of the control solution.
Column: Waters Nova Pack C18 (inner diameter: 3.9 mm, length: 150 mm)
Mobile phase A: acetonitrile/water=10/90
Mobile phase B: acetonitrile/methanol=50/50
Eluent: Mobile phase A-mobile phase B (100/0 to 0/100, linear gradient, 50 minutes)
Amount of injection: 50 μL

[1] = read-out: Human cymase IC50 value, human chymase from silkworms infected with baculovirus, 120 minutes at 37° C.

| Compound | IC50 (Cathepsin G) [nM] | IC50 (Simian chymase) [nM] | IC50 (Chymotrypsin) [nM] | IC50 (Human chymase) [nM] | also measured |
| --- | --- | --- | --- | --- | --- |
| Cc1c(S(=O)(=O)Nc2ccc(C(=O)NCC(=O)O)cc2S(C)(=O)=O)sc2ccc(Cl)cc12 (as salt: sodium) [Compound 52] |  |  |  |  | melting point: 290 to 292 °C |
| CC(C)C[C@H](NC(=O)[C@@H](NC(=O)N[C@@H](Cc1ccccc1)C(=O)O)[C@@H]1CCN=C(N)N1)C(=O)N[C@H](C=O)Cc1ccccc1 [Chymostatin, reference compound] | 5.99 |  |  |  |  |
| COC(=O)c1ccc(NS(=O)(=O)c2sc3ccc(Cl)cc3c2C)c(S(C)(=O)=O)c1 [Compound 1, Methyl 4-(5-chloro-3-methylbenzo[b]thiophene-2-sulfonylamino)-3-methanesulfonylbenzoate] | > 10000 | 50 | > 10000 |  | IC50 (Human chymase; [1]): 203 nM; Residual ratio in rat plasma (Stability in rat plasma): 93.9% |
| CCOC(=O)c1ccc(NS(=O)(=O)c2sc3ccc(Cl)cc3c2C)c(S(C)(=O)=O)c1 [Compound 2, Ethyl 4-(5-chloro-3-methylbenzo[b]thiophene-2-sulfonylamino)-3-methanesulfonylbenzoate] |  | 42 |  |  |  |
| Cc1c(S(=O)(=O)Nc2ccc(C(=O)OC(C)(C)C)cc2S(C)(=O)=O)sc2ccc(Cl)cc12 [Compound 3, tert-butyl 4-(5-chloro-3-methylbenzo[b]thiophene-2-sulfonylamino)-3-methanesulfonylbenzoate] |  | 178 |  |  |  |
| CCS(=O)(=O)c1cc(C(=O)OC)ccc1NS(=O)(=O)c1sc2ccc(Cl)cc2c1C [Compound 4, Methyl 4-(5-chloro-3-methylbenzo[b]thiophene-2-sulfonylamino)-3-ethanesulfonylbenzoate] | > 10000 | 111 | > 10000 |  | Residual ratio in rat plasma (Stability in rat plasma): 93.5% |
| COC(=O)c1cc(S(C)(=O)=O)c(NS(=O)(=O)c2sc3ccc(Cl)cc3c2C)cc1C [Compound 5, Methyl 4-(5-chloro-3-methylbenzo[b]thiophene-2-sulfonylamino)-5-methanesulfonyl-2-methylbenzoate] | > 1000 | 150 | > 1000 |  | Residual ratio in rat plasma (Stability in rat plasma): 85.2% |
| COC(=O)c1ccc(NS(=O)(=O)c2sc3ccc(Cl)cc3c2C)c([N+](=O)[O-])c1 [Compound 8, Methyl 4-(5-chloro-3-methylbenzo[b]thiophene-2-sulfonylamino)-3-nitrobenzoate] | > 10000 |  | > 10000 |  |  |
| CC(=O)c1ccc(NS(=O)(=O)c2sc3ccc(Cl)cc3c2C)c(S(C)(=O)=O)c1 [Compound 11, N-(4-acetyl-2-methanesulfonylphenyl)-5-chloro-3-methylbenzo[b]thiophene-2-sulfonamide] |  | 100 |  | 271 |  |
| Cc1c(S(=O)(=O)Nc2ccc(CO)cc2S(C)(=O)=O)sc2ccc(Cl)cc12 [Compound 13, 5-chloro-N-(4-hydroxymethyl-2-methanesulfonylphenyl)-3-methylbenzo[b]thiophene-2-sulfonamide] |  | 271 |  |  |  |
| CCOC(=O)c1ccc(NS(=O)(=O)c2sc3ccc(Cl)cc3c2C)cc1 [Compound 14, ethyl 4-(5-chloro-3-methylbenzo[b]thiophene-2-sulfonylamino)benzoate] | > 10000 | 278 | > 10000 |  | Residual ratio in rat plasma (Stability in rat plasma): 79.2% |
| CC(=O)c1ccc(NS(=O)(=O)c2sc3ccc(F)cc3c2C)c(S(C)(=O)=O)c1 [Compound 19, N-(4-acetyl-2-methanesulfonylphenyl)-5-fluoro-3-methylbenzo[b]thiophene-2-sulfonamide] |  | 20 |  |  | IC50 (Human chymase; [1]): 82 nM; Residual ratio in rat plasma (Stability in rat plasma): 96.2% |
| COC(=O)c1ccc(NS(=O)(=O)c2sc3ccccc3c2C)c(S(C)(=O)=O)c1 [Compound 20, methyl 4-(3-methylbenzo[b]thiophene-2-sulfonylamino)-3-methanesulfonylbenzoate] |  | 39 |  |  | IC50 (Human chymase; [1]): 305 nM |
| COC(=O)c1coc(-c2ccc(NS(=O)(=O)c3sc4ccc(Cl)cc4c3C)c(S(C)(=O)=O)c2)n1 [Compound 25, methyl 2-[4-(5-chloro-3-methylbenzo[b]thiophene-2-sulfonylamino)-3-methanesulfonylphenyl]oxazole-4-carboxylate] |  | 75 |  |  | melting point: 296 to 298 °C |
| Cc1c(S(=O)(=O)Nc2ccc(-c3nc(C(=O)O)co3)cc2S(C)(=O)=O)sc2ccc(Cl)cc12 [Compound 26, 2-[4-(5-chloro-3-methylbenzo[b]thiophene-2-sulfonylamino)-3-methanesulfonylphenyl]oxazole-4-carboxylic acid] | > 10000 | 10 | > 10000 | 150 | Residual ratio in rat plasma (Stability in rat plasma): 100% |
| Cc1c(S(=O)(=O)Nc2ccc(-c3cnco3)cc2S(C)(=O)=O)sc2ccc(F)cc12 [Compound 48] | > 10000 | 6 | > 10000 | 45 | melting point: 199 to 201 °C |
| Cc1c(S(=O)(=O)Nc2ccc(C(=O)NCC(=O)O)cc2S(C)(=O)=O)sc2ccc(Cl)cc12 [Compound 52] |  | 157 |  |  |  |
| COc1oc(-c2ccc(NS(=O)(=O)c3sc4ccc(F)cc4c3C)c(S(C)(=O)=O)c2)nc1C [Compound 56, 5-fluoro-N-[2-methanesulfonyl-4-(5-methoxy-4-methyloxazol-2-yl)phenyl]-3-methylbenzo[b]thiophene-2-sulfonamide] |  |  |  | 102 |  |
| Cc1c(S(=O)(=O)Nc2ccc(-c3nc(CO)cs3)cc2S(C)(=O)=O)sc2ccc(F)cc12 [Compound 63, 5-fluoro-N-[4-(4-hydroxymethylthiazol-2-yl)-2-methanesulfonylphenyl]-3-methylbenzo[b]thiophene-2-sulfonamide] |  |  |  | 20 |  |
| Cc1c(S(=O)(=O)Nc2ccc(-c3nc(CO)co3)cc2S(C)(=O)=O)sc2ccc(F)cc12 [Compound 66] |  |  |  | 39 | melting point: 242 to 244 °C |
| Cc1coc(-c2ccc(NS(=O)(=O)c3sc4ccc(F)cc4c3C)c(S(C)(=O)=O)c2)n1 [Compound 68] |  |  |  | 101 | melting point: 206 to 208 °C |
| CS/C(=C\c1ccc(NS(=O)(=O)c2sc3ccc(F)cc3c2C)c(S(C)(=O)=O)c1)[S+](C)[O-] (stereo not shown) [Compound 72, 5-fluoro-N-[2-methanesulfonyl-4-((E)-2-methanesulfinyl-2-methylsulfanylvinyl)phenyl]-3-methylbenzo[b]thiophene-2-sulfonamide] |  |  |  | 20 |  |
| Cc1c(S(=O)(=O)Nc2ccc(-c3ncco3)cc2S(C)(=O)=O)sc2ccc(F)cc12 [Compound 73, 5-fluoro-N-[2-methanesulfonyl-4-(oxazol-2-yl)phenyl]-3-methylbenzo[b]thiophene-2-sulfonamide] |  |  |  | 55 |  |

Source: patent US7071220B2, “N-substituted benzothiophenesulfonamide derivatives” (Toa Eiyo Ltd., priority 2000, dated 2006)
